Tests used:
thrombocyte aggregation = test: Thrombocyte aggregation according to Born and Cross (collagen-induced, platelet-rich plasma); assay type: cell-based; settings: platelet-rich plasma from healthy human test subjects; aggregation initiated by collagen
Description: Determination of the thrombocyte aggregation according to Born and Cross [J. Physiol. 170, 397 (1964)]
The thrombocyte aggregation was determined in platelet-rich plasma from healthy human test subjects. The course of decrease in optical density after the administration of standard commercial collagen (made by the Sigma Co., St. Louis, Mo.) containing 1 mg of collagen fibrils per ml was measured photometrically and recorded. The rate of aggregation (Vmax) was deduced from the angle of inclination of the density curve. The point on the curve where there was most light transmittance was used to calculate the optical density (O.D.). To initiate maximum aggregation, about 0.01 ml of the collagen solution was added to 1 ml of platelet-rich plasma.

anesthetized cat = test: Hypotensive and positive inotropic activity in the anesthetized cat; assay type: in vivo; settings: average; for Change in blood pressure (first value of the printed pair) / Change in blood pressure (second value of the printed pair): arterial pressure, aorta abdominalis; for Change in blood pressure (first value of the printed pair): first number before the slash; for Change in blood pressure (second value of the printed pair): second number after the slash; for Increase in dp/dt: left ventricle pressure, dp/dtmax
Description: Determination of hypotensive and positive inotropic activity in the anesthetized cat
The tests were carried out on cats which had been anesthetized with sodium pentobarbital (40 mg/kg i.p.). The animals breathed spontaneously. The arterial blood pressure was measured in the aorta abdominalis using a Statham pressure transducer (P 23 Dc). To determine the positive inotropic effect, the pressure in the left ventricle of the heart was measured using a catheter-tip manometer (Milliar PC-350 A). From this, the contractility parameter (dp/dtmax was obtained by means of an analog differentiator.
The test compounds were injected into a vena femoralis. Physiological saline solution or Polydiol 200 was used as the solvent. Each compound was tested on at least 3 cats in a dosage of 0.1 or 2.0 mg/kg i.v. The duration of activity of the test compounds was at least 45 minutes in each case.

Acute toxicity = settings: in vivo, po; peroral, mouse
Description: In therapeutic doses the test substances are non-toxic. For example, compound B has a peroral LD50 of >50 mg/kg in the mouse.

Compound | EC50 (thrombocyte aggregation) [nM] | Change in blood pressure (first value of the printed pair) (anesthetized cat; 0.1 mg/kg i.v.) [mm Hg] | Change in blood pressure (second value of the printed pair) (anesthetized cat; 0.1 mg/kg i.v.) [mm Hg] | Increase in dp/dt (anesthetized cat; 0.1 mg/kg i.v.) | Change in blood pressure (first value of the printed pair) (anesthetized cat; 2.0 mg/kg i.v.) [mm Hg] | Change in blood pressure (second value of the printed pair) (anesthetized cat; 2.0 mg/kg i.v.) [mm Hg] | Increase in dp/dt (anesthetized cat; 2.0 mg/kg i.v.) | LD50 (Acute toxicity) [mg/kg]
COc1ccc(C(=O)n2nnc3cc(C4=NNC(=O)CC4C)ccc32)cc1 (stereo not shown) [A, 5-Methyl-6-(1'-p-methoxybenzoyl-benzotriazol-5'-yl)-4,5-dihydro-3(2H)-pyridazinone] | 270 | -16 | -16 | +105% |  |  |  | 
CC1CC(=O)NN=C1c1ccc2c(c1)nnn2C(=O)C1CCCCC1 (stereo not shown) [B, 5-Methyl-6-(1'-cyclohexanoyl-benzotriazol-5'-yl)-4,5-dihydro-3(2H)-pyridazinone] | 280 |  |  |  | -60 | -37 | +154% | > 50
CC1CC(=O)NN=C1c1ccc2c(c1)nnn2C(C)C (stereo not shown) [C, 5-Methyl-6-(1'-isopropyl-benzotriazol-5'-yl)-4,5-dihydro-3(2H)-pyridazinone] | 33 | -27 | -33 | +116% |  |  |  | 
COc1ccc(Cn2nnc3cc(C4=NNC(=O)CC4C)ccc32)cc1 (stereo not shown) [Compound E, 5-Methyl-6-(1'-p-methoxybenzyl-benzotriazol-5'-yl)-4,5-dihydro-3(2H)-pyridazinone] |  | -48 | -48 | +167% |  |  |  | 
CCn1nnc2cc(C3=NNC(=O)CC3C)ccc21 (stereo not shown) [D, 5-Methyl-6-(1'-ethyl-benzotriazol-5'-yl)-4,5-dihydro-3(2H)-pyridazinone] | 41 | -30 | -32 | +125% |  |  |  | 
CC1CC(=O)NN=C1c1ccc2c(c1)nnn2CCN(C)C (stereo not shown) [F, 5-Methyl-6-[1'-(2-dimethylaminoethyl)-benzotriazol-5'-yl]-4,5-dihydro-3(2H)-pyridazinone] | 300 |  |  |  |  |  |  | 
CC1CC(=O)NN=C1c1ccc2c(c1)nnn2C (stereo not shown) [G, 5-Methyl-6-(1'-methyl-benzotriazol-5'-yl)-4,5-dihydro-3(2H)-pyridazinone] | 51 | -33 | -38 | +168% |  |  |  | 
